Data from US9340590B2 (priority 2011, dated 2016).
Like-named read-outs stand apart in the source and are kept apart here. Positions of bridges follow the written chain, without caps; N, C: chain ends. Residues, ends and D or L forms follow the SMILES beside them.

How the values were obtained:
[1] = target: hNav1.5 (Homo sapiens, UniProt Q14524); test: cell-based
[2] = target: hNav1.3 (Homo sapiens, UniProt Q9NY46); test: cell-based; conditions: IonWorks Quattro, read-out: IWQ Use Nav1.3
[3] = clamped to −110 mV, depolarized to −10 mV, 5 min after compound, n=2
[4] = IonWorks Quattro, Use, read-out: IWQ Use Nav1.5

Chain of hNav1.5 (Q14524 whole entry, looked up): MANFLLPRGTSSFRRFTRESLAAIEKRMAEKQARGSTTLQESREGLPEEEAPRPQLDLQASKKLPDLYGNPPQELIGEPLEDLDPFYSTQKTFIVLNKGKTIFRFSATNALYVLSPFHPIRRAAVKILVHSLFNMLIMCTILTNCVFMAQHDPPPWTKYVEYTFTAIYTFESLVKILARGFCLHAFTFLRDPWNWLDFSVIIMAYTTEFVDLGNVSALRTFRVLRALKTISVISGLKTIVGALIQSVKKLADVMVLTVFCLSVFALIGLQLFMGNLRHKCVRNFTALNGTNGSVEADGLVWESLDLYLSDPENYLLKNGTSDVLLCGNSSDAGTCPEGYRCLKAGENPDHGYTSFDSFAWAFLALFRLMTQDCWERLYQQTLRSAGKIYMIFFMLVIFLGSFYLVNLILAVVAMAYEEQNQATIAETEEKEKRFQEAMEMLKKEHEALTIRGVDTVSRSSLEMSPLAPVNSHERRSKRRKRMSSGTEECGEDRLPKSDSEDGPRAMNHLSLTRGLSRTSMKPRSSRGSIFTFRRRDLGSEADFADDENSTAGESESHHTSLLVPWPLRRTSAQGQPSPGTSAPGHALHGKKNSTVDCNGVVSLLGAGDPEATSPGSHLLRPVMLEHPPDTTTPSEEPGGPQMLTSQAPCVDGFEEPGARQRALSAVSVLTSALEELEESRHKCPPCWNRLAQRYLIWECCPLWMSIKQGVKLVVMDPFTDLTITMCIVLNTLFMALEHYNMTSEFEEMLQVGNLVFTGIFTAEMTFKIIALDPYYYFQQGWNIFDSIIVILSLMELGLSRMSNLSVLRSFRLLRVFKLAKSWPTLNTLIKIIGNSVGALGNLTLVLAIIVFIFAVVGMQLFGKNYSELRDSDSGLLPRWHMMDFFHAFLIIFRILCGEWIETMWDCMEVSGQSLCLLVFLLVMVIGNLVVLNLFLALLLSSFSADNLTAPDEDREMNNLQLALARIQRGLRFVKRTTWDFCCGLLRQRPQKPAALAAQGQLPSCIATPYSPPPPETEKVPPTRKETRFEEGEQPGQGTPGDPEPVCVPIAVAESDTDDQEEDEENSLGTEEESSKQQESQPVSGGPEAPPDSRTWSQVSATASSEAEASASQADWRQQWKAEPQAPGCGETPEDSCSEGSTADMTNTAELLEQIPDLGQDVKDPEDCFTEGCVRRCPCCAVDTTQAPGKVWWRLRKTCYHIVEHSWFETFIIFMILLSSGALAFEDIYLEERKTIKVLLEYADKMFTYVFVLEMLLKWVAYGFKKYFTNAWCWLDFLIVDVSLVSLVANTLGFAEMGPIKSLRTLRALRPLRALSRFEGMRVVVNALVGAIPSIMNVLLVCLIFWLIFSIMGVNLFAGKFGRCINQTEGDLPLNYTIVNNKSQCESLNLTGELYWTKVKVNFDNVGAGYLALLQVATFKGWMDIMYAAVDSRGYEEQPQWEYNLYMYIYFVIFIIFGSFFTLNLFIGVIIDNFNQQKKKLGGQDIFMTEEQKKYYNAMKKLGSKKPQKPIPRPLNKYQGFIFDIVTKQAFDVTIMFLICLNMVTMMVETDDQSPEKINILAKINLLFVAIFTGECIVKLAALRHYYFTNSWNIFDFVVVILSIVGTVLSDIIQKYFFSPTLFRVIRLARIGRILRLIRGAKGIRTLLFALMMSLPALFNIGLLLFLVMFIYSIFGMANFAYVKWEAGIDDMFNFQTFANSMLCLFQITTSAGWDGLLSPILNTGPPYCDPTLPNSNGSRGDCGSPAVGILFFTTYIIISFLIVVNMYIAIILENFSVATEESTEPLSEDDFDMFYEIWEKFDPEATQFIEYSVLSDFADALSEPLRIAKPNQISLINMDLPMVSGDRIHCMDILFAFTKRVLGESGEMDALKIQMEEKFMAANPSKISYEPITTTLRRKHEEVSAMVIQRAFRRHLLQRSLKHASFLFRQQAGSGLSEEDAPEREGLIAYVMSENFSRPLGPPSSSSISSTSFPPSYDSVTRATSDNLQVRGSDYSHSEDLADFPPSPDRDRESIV
Chain of hNav1.3 (Q9NY46 whole entry, looked up): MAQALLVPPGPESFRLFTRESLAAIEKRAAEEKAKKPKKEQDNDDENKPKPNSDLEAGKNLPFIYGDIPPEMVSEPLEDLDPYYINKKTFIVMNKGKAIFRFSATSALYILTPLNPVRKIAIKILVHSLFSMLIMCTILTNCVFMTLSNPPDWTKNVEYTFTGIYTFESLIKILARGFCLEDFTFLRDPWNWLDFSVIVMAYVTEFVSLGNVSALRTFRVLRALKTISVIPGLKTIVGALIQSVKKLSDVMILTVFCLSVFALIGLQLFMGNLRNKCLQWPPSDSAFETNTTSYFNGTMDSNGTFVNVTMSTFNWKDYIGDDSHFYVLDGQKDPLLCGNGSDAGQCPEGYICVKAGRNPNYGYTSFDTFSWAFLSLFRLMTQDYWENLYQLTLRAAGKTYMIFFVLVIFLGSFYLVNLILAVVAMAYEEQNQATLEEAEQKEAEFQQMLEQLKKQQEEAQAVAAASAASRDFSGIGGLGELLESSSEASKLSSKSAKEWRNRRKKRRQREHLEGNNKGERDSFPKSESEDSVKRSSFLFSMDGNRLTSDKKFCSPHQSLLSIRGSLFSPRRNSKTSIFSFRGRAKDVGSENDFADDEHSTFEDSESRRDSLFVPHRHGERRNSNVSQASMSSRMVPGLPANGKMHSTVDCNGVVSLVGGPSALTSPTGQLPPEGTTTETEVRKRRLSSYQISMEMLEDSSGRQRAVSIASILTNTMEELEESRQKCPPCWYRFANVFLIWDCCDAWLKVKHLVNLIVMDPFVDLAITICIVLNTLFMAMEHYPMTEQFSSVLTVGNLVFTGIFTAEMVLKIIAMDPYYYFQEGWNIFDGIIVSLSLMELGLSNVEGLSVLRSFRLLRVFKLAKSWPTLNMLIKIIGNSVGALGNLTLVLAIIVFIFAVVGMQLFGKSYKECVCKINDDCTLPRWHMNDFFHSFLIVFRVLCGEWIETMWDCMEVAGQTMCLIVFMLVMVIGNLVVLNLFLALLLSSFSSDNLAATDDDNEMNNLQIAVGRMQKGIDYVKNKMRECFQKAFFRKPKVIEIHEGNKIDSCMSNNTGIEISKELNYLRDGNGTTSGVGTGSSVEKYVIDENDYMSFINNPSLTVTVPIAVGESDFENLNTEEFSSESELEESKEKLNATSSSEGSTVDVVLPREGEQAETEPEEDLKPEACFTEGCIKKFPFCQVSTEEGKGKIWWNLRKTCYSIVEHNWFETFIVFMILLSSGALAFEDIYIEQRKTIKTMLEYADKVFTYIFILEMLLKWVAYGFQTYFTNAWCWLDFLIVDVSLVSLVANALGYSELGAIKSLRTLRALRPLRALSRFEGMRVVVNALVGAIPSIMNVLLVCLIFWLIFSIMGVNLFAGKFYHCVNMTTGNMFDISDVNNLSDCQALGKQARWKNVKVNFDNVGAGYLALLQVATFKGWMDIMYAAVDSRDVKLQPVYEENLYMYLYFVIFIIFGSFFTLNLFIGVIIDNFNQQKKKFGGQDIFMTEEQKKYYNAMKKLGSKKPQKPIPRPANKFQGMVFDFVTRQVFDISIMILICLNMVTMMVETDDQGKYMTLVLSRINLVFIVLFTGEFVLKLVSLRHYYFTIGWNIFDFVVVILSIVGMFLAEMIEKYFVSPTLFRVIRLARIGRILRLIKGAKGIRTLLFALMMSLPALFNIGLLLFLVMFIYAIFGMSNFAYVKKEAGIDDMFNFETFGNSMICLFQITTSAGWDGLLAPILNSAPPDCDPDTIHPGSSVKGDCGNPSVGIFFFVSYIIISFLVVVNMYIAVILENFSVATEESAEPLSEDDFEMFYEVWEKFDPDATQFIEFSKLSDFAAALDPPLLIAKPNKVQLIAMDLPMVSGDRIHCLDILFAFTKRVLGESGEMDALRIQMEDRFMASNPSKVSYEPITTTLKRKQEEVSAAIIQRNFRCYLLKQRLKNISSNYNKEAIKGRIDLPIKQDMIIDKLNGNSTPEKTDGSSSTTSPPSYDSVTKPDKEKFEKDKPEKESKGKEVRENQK

Compound | IC50 [2, 3] [µM] | IC50 [1, 4] [µM] | IC50 ([2]; Use) [µM] | further results
CC[C@H](C)[C@@H]1NC(=O)[C@@H]2CSSC[C@@H]3NC(=O)[C@H](C(C)C)NC(=O)[C@H](CC(C)C)NC(=O)[C@H](CC(N)=O)NC(=O)[C@@H]4CCCN4C(=O)[C@H](CCCNC(=N)N)NC(=O)[C@H](CSSC[C@H](NC(=O)[C@@H](N)CC(=O)O)C(=O)N[C@@H](CC(C)C)C(=O)NCC(=O)N[C@@H](Cc4ccccc4)C(=O)N[C@@H](CCSC)C(=O)N[C@@H](CCCNC(=N)N)C(=O)N[C@@H](CCCCN)C(=O)N2)NC(=O)[C@H](CSSC[C@@H](C(=O)N[C@@H](CCCCN)C(=O)N[C@@H](Cc2ccc(O)cc2)C(=O)N[C@H](C(N)=O)C(C)C)NC(=O)[C@H](Cc2c[nH]c4ccccc24)NC(=O)[C@H](CCCCN)NC(=O)[C@H](Cc2cnc[nH]2)NC(=O)[C@H]([C@@H](C)O)NC(=O)[C@H](CCCNC(=N)N)NC(=O)[C@H](CO)NC3=O)NC(=O)[C@H](CCCCN)NC(=O)[C@H](CC(=O)O)NC(=O)[C@H](CC(N)=O)NC(=O)[C@H](CC(=O)O)NC(=O)[C@@H]2CCCN2C1=O [compound 415] (H-DCLGFMRKCIPDNDKCCRPNLVCSRTHKWCKYV-NH2; disulfide 2-17, 9-23, 16-30) |  |  |  | IC50 ([1]; IonWorks Quattro, use-dependent, […], read-out: IWQ Use Nav1.5): 10.8 µM; IC50 ([2]; use-dependent, […]): 1.3 µM
CC[C@H](C)[C@@H]1NC(=O)[C@@H]2CSSC[C@@H]3NC(=O)[C@H](C(C)C)NC(=O)[C@H](CC(C)C)NC(=O)[C@H](CC(N)=O)NC(=O)[C@@H]4CCCN4C(=O)[C@H](CCCNC(=N)N)NC(=O)[C@H](CSSC[C@H](NC(=O)[C@@H](N)CC(=O)O)C(=O)N[C@@H](CC(C)C)C(=O)NCC(=O)N[C@@H](Cc4ccccc4)C(=O)N[C@@H](CCSC)C(=O)N[C@@H](CCCNC(=N)N)C(=O)N[C@@H](CCCCN)C(=O)N2)NC(=O)[C@H](CSSC[C@@H](C(=O)N[C@@H](CCCCN)C(=O)N[C@@H](Cc2ccc(O)cc2)C(=O)N[C@H](C(=O)N[C@@H](Cc2ccccc2)C(N)=O)C(C)C)NC(=O)[C@H](Cc2c[nH]c4ccccc24)N(C)C(=O)[C@H](CCCCN)NC(=O)[C@H](Cc2c[nH]cn2)NC(=O)[C@H]([C@@H](C)O)NC(=O)[C@H](CCCNC(=N)N)NC(=O)[C@H](CO)NC3=O)NC(=O)[C@H](CCCCN)NC(=O)[C@H](CC(=O)O)NC(=O)[C@H](CC(N)=O)NC(=O)[C@H](CC(=O)O)NC(=O)[C@@H]2CCCN2C1=O [compound 357] |  |  |  | IC50 ([1]; IWQ Use Nav1.5 (μM)): > 5 µM; IC50 ([2]; Table 24, use, […]): > 5 µM
CC[C@H](C)[C@@H]1NC(=O)[C@@H]2CSSC[C@@H]3NC(=O)[C@H](C(C)C)NC(=O)[C@H](CC(C)C)NC(=O)[C@H](CC(N)=O)NC(=O)[C@@H]4CCCN4C(=O)[C@H](CCCNC(=N)N)NC(=O)[C@H](CSSC[C@H](NC(=O)[C@@H](N)CC(=O)O)C(=O)N[C@@H](CC(C)C)C(=O)NCC(=O)N[C@@H](CCCNC(=N)N)C(=O)N[C@@H](CCSC)C(=O)N[C@@H](CCCNC(=N)N)C(=O)N[C@@H](CCCCN)C(=O)N2)NC(=O)[C@H](CSSC[C@@H](C(=O)N[C@@H](CCCCN)C(=O)N[C@@H](Cc2ccc(O)cc2)C(=O)N[C@H](C(=O)N[C@@H](Cc2ccccc2)C(N)=O)C(C)C)NC(=O)[C@H](Cc2c[nH]c4ccccc24)NC(=O)[C@H](CCCCN)NC(=O)[C@H](Cc2cnc[nH]2)NC(=O)[C@H]([C@@H](C)O)NC(=O)[C@H](CCCNC(=N)N)NC(=O)[C@H](CO)NC3=O)NC(=O)[C@H](CCCCN)NC(=O)[C@H](CC(=O)O)NC(=O)[C@H](CC(N)=O)NC(=O)[C@H](CC(=O)O)NC(=O)[C@@H]2CCCN2C1=O [SEQ ID NO: 156] (H-DCLGRMRKCIPDNDKCCRPNLVCSRTHKWCKYVF-NH2; disulfide 2-17, 9-23, 16-30) | 4.09 |  |  | IC50 ([1]; IonWorks Quattro, clamped to −110 mV, depolarized to −10 mV, 5 min after compound, n=2, read-out: IWQ Use Nav1.5): 12.6 µM
CSCC[C@@H]1NC(=O)[C@H](Cc2ccccc2)NC(=O)CNC(=O)[C@H](CC(C)C)NC(=O)[C@@H](NC(=O)[C@@H](N)CC(=O)O)CSSC[C@@H]2NC(=O)[C@@H]3CSSC[C@@H](C(=O)N[C@@H](CCCCN)C(=O)N[C@@H](Cc4ccc(O)cc4)C(=O)N[C@H](C(=O)N[C@@H](Cc4ccccc4)C(N)=O)C(C)C)NC(=O)[C@H](Cc4c[nH]c5ccccc45)NC(=O)[C@H](CCCCN)NC(=O)[C@H](Cc4cnc[nH]4)NC(=O)[C@H]([C@@H](C)O)NC(=O)[C@H](CCCNC(=N)N)NC(=O)[C@H](CO)NC(=O)[C@H](CSSC[C@H](NC(=O)[C@H](CCCCN)NC(=O)[C@H](CCCNC(=N)N)NC1=O)C(=O)N[C@@H](C)C(=O)N1CCC[C@H]1C(=O)N[C@@H](CC(=O)O)C(=O)N[C@@H](CC(N)=O)C(=O)N[C@@H](CC(=O)O)C(=O)N[C@@H](CCCCN)C(=O)N3)NC(=O)[C@H](C(C)C)NC(=O)[C@H](CC(C)C)NC(=O)[C@H](CC(N)=O)NC(=O)[C@@H]1CCCN1C(=O)[C@H](CCCNC(=N)N)NC2=O [compound 45] (H-DCLGFMRKCAPDNDKCCRPNLVCSRTHKWCKYVF-NH2; disulfide 2-17, 9-23, 16-30) |  | 16.5 | 0.19 | 
CC[C@H](C)[C@@H]1NC(=O)[C@@H]2CSSC[C@@H]3NC(=O)[C@H](C(C)C)NC(=O)[C@H](CC(C)C)NC(=O)[C@H](CC(N)=O)NC(=O)[C@@H]4CCCN4C(=O)[C@H](CCCNC(=N)N)NC(=O)[C@H](CSSC[C@H](NC(=O)[C@@H](N)CC(=O)O)C(=O)N[C@@H](CC(C)C)C(=O)N[C@@H](CCC(=O)O)C(=O)N[C@@H](Cc4ccccc4)C(=O)N[C@@H](CCSC)C(=O)N[C@@H](CCCNC(=N)N)C(=O)N[C@@H](CCCCN)C(=O)N2)NC(=O)[C@H](CSSC[C@@H](C(=O)N[C@@H](CCCCN)C(=O)N[C@@H](Cc2ccc(O)cc2)C(=O)N[C@H](C(=O)N[C@@H](Cc2ccccc2)C(N)=O)C(C)C)NC(=O)[C@H](Cc2c[nH]c4ccccc24)NC(=O)[C@H](CCCCN)NC(=O)[C@H](Cc2cnc[nH]2)NC(=O)[C@H]([C@@H](C)O)NC(=O)[C@H](CCCNC(=N)N)NC(=O)[C@H](CO)NC3=O)NC(=O)[C@H](CCCCN)NC(=O)[C@H](CC(=O)O)NC(=O)[C@H](CC(N)=O)NC(=O)[C@H](CC(=O)O)NC(=O)[C@@H]2CCCN2C1=O [SEQ ID NO: 24] (H-DCLEFMRKCIPDNDKCCRPNLVCSRTHKWCKYVF-NH2; disulfide 2-17, 9-23, 16-30) | 1.33 |  |  | IC50 ([1]; IWQ Use Nav1.5): 17.6 µM
CC[C@H](C)[C@@H]1NC(=O)[C@@H]2CSSC[C@@H]3NC(=O)[C@H](C(C)C)NC(=O)[C@H](CC(C)C)NC(=O)[C@H](C)NC(=O)[C@@H]4CCCN4C(=O)[C@H](CCCNC(=N)N)NC(=O)[C@H](CSSC[C@H](NC(=O)[C@@H](N)CC(=O)O)C(=O)N[C@@H](CC(C)C)C(=O)NCC(=O)N[C@@H](Cc4ccccc4)C(=O)N[C@@H](CCSC)C(=O)N[C@@H](CCCNC(=N)N)C(=O)N[C@@H](CCCCN)C(=O)N2)NC(=O)[C@H](CSSC[C@@H](C(=O)N[C@@H](CCCCN)C(=O)N[C@@H](Cc2ccc(O)cc2)C(=O)N[C@H](C(=O)N[C@@H](Cc2ccccc2)C(N)=O)C(C)C)NC(=O)[C@H](Cc2c[nH]c4ccccc24)NC(=O)[C@H](CCCCN)NC(=O)[C@H](Cc2cnc[nH]2)NC(=O)[C@H]([C@@H](C)O)NC(=O)[C@H](CCCNC(=N)N)NC(=O)[C@H](CO)NC3=O)NC(=O)[C@H](CCCCN)NC(=O)[C@H](CC(=O)O)NC(=O)[C@H](CC(N)=O)NC(=O)[C@H](CC(=O)O)NC(=O)[C@@H]2CCCN2C1=O [compound 7] (H-DCLGFMRKCIPDNDKCCRPALVCSRTHKWCKYVF-NH2; disulfide 2-17, 9-23, 16-30) |  | 19.5 | 0.41 | 
